According to patent publication US12098352B2, “Stem cell-based lung-on-chip models” (EMULATE, INC., priority 2018, dated 2024):

How the values were obtained:
[1] = system: IL-6, IL-8 and MCP-1; test: Cytokine secretion in chip medium effluent (ELISA); format: cell-based, human
Excerpt: We studied interaction between different chip compartments by perturbating the system with biological and chemical stressors such as LPS, and H2O2 which are known to induce a reversible disruption of the cellular monolayer after acute administration both in vivo and in vitro. […] To assess changes in the barrier function following the exposure to these insults, we added a fluorescent dye (e.g. […]—Dextran-FITC) to the endothelial compartment, which is under control condition confirmed that the endothelium and epithelium form a barrier to the dies. The presence of a strong barrier is also indirectly confirmed by the presence of continuous pattern of E-cad and VE-cad in the monolayer of Alveolar epithelial and endothelial cell, respectively. […] We also decoupled the effect of single biological component to the inflammatory response by selectively removing them from the system in an integrated matrix. […] In fact, the recorded value of IL-6 and IL-8 is not the algebraic sum of the concentration of the factors released by the single cellular components. […]
The amount of Surfactant B and C was collected from chip epithelial cell surface by PBS washing and measured by Human SFTPB/Surfactant Protein B ELISA Kit (Sandwich ELISA)—LS-F4439 and Human SFTPC/Surfactant Protein C ELISA Kit (Sandwich ELISA)—LS-F12438 (LifeSpanBioScience) following the manufacturer's protocol. The color reaction was measured at 450 nm with a photometer (specification). […] Similarly, the presence of IL-6, IL-8 and MPC in medium samples was detected by Human TLR-induced Cytokines II: Microbial-induced Multi-Analyte ELISArray Kit (MEH-008A) (Qiogen) following the manufacturer's protocol. The color reaction was measured at 450 nm with a photometer (specification). […]

[2] = system: platelets; test: Blood perfusion of LPS pretreated Alveolar-chip vascular channel; format: cell-based, human; settings: LPS pretreated (inflamed) chip
Experimental: For further validation on the functionality of the endothelial compartment, the vascular compartment comprising an endothelial cell lining, was exposed to blood under flow. In one embodiment, an LPS pretreated microfluidic Alveolar-chip was perfused with blood, i.e. blood was flowed through the spiral channel. In one embodiment, a sample of human blood, e.g. 5 ml of whole blood isolated the same day from a healthy person (e.g. in citrate or heparin anticoagulation compounds) was perfused through the bottom spiraled channel with Ca2+ and Mg2+ to counteract the anticoagulation compounds, at 30 ml/hour. […] Left, schematic diagrams of the upper channels blue and ports blue dots, and spiral lower vascular endothelial channel red and ports red dots. […] Larger pink areas represent aggregation of platelets and adhered platelets are observed at the lower sharp bend.

Lipopolysaccharide [LPS]
release of IL-6, IL-8 and MCP-1 in medium effluent ([1]; 24 hours of exposure): increases of lung specific cytokines
IL-6, IL-8 and MCP-1 secretion, fold increase in relation to untreated controls ([1]; LPS stimulation, co-presence of epithelial cells): 40-90 fold
platelet response on blood perfusion [2]: platelet adhesion and aggregation
